# Target: human PDE1B enzyme (Homo sapiens (Human), UniProt Q01064)
# Experiment: IMAP TR-FRET PDE1B enzymatic assay
# Format: biochemical
# Conditions: negative log of half-maximal molar inhibitory concentration, 200 nM FAM-cAMP, values given as bins; for IC50: read-out: PDE1b (pIC50) (converted)
# Outline: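 Full-length GST-tagged human PDE1B (250 pg/well) in IMAP BSA buffer with 10 U/ml calmodulin and 2.5 mM CaCl2; compound pre-incubated 5 min at room temperature, then 200 nM (final) FAM-cAMP for 30 min. IMAP binding reagent/Tb added, 1 h; TR-FRET 520/490 ratio read. IC50 from sigmoidal dose-response fit.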
SMILES,IC50,PDE1b (pIC50)
"Cc1cc2n(n1)CCN(C(=O)c1c(C)oc3ncnc(NC4(C)CC4)c13)C2 [Example 632, 6-Methyl-5-f{2-methyl-4H,5H,6H,7H-pyrazolo[1,5-a]pyrazine-5-carbonyl}-N-(1-methylcyclopropyl)furo[2,3-d]pyrimidin-4-amine]",10 to 100 nM,–
"Cc1cn2c(n1)CN(C(=O)c1c(C)oc3ncnc(NC4(C)CC4)c13)CC2 [Example 633, 6-Methyl-5-{2-methyl-5H,6H,7H,8H-imidazo[1,2-a]pyrazine-7-carbonyl}-N-(1-methylcyclopropyl)furo[2,3-d]pyrimidin-4-amine]",100 to 1000 nM,–
"COc1cc2c(cn1)CN(C(=O)c1c(C)oc3ncnc(NC4(C)CC4)c13)CC2 [Example 634, 5-(6-Methoxy-1,2,3,4-tetrahydro-2,7-naphthyridine-2-carbonyl)-6-methyl-N-(1-methylcyclopropyl)furo[2,3-d]pyrimidin-4-amine]",10 to 100 nM,–
"COc1ccc2c(n1)CCN(C(=O)c1c(C)oc3ncnc(NC4(C)CC4)c13)C2 [Example 635, 5-(2-Methoxy-5,6,7,8-tetrahydro-1,6-naphthyridine-6-carbonyl)-6-methyl-N-(1-methylcyclopropyl)furo[2,3-d]pyrimidin-4-amine]",10 to 100 nM,–
"Cc1oc2ncnc(NC3(C)CC3)c2c1C(=O)N1CCn2nc(C#N)cc2C1 [Example 636, 5-{6-Methyl-4-[(1-methylcyclopropyl)amino]furo[2,3-d]pyrimidine-5-carbonyl}-4H,5H,6H,7H-pyrazolo[1,5-a]pyrazine-2-carbonitrile]",100 to 1000 nM,–
"Cc1oc2ncnc(NC3(C)CC3)c2c1C(=O)N1CCc2ccncc2C1 [Example 637, 6-Methyl-N-(1-methylcyclopropyl)-5-(1,2,3,4-tetrahydro-2 7-naphthyridine-2-carbonyl)furo[2,3-d]pyrimidin-4-amine]",100 to 1000 nM,–
"Cc1oc2ncnc(NC3(C)CC3)c2c1C(=O)N1CCn2c(C(F)(F)F)nc(C3CCOCC3)c2C1 [Example 638, 6-Methyl-N-(1-methylcyclopropyl)-5-[1-(oxan-4-yl)-3-(trifluoromethyl)-5H,6H,7H,8H-imidazo[1,5-a]pyrazine-7-carbonyl]furo[2,3-d]pyrimidin-4-amine]",100 to 1000 nM,–
"Cc1oc2ncnc(NC3(C)CC3)c2c1C(=O)N1CCn2c(C)nc(C3CCOCC3)c2C1 [Example 639, 6-Methyl-5-[3-methyl-1-(oxan-4-yl)-5H,6H,7H,8H-imidazo[1,5-a]pyrazine-7-carbonyl]-N-(1-methylcyclopropyl)furo[2,3-d]pyrimidin-4-amine]",100 to 1000 nM,–
"Cc1oc2ncnc(NC3(C)CC3)c2c1C(=O)N1CCn2cncc2C1 [Example 640, 5-{5H,6H,7H,8H-Imidazo[1,5-a]pyrazine-7-carbonyl}-6-methyl-N-(1-methylcyclopropyl)furo[2,3-d]pyrimidin-4-amine]",100 to 1000 nM,–
"Cc1oc2ncnc(NC3(C)CC3)c2c1C(=O)N1CCn2ncc(Br)c2C1 [Example 641, 5-{3-Bromo-4H,5H,6H,7H-pyrazolo[1,5-a]pyrazine-5-carbonyl}-6-methyl-N-(1-methylcyclopropyl)furo[2,3-d]pyrimidin-4-amine]",100 to 1000 nM,–
"Cc1oc2ncnc(NC3(C)CC3)c2c1C(=O)N1CCc2cc(Cl)ncc2C1 [Example 642, 5-(6-Chloro-1,2,3,4-tetrahydro-2,7-naphthyridine-2-carbonyl)-6-methyl-N-(1-methylcyclopropyl)furo[2,3-d]pyrimidin-4-amine]",10 to 100 nM,–
"CON(C)C(=O)c1c(C)oc2ncnc(NC3(C)CC3)c12 [Example 643, N-Methoxy-N,6-dimethyl-4-[(1-methylcyclopropyl)amino]furo[2,3-d]pyrimidine-5-carboxamide]",100 to 1000 nM,–
"Cc1oc2ncnc(NC3(C)CC3)c2c1C(=O)NCc1ccnc(C(C)C)n1 [Example 644, 6-Methyl-4-[(1-methylcyclopropyl)amino]-N-{[2-(propan-2-yl)pyrimidin-4-yl]methyl}furo[2,3-d]pyrimidine-5-carboxamide]",10 to 100 nM,–
"Cc1oc2ncnc(NC3(C)CC3)c2c1C(=O)Nc1cnn(C2CC2)c1 [Example 645, N-(1-Cyclopropyl-1H-pyrazol-4-yl)-6-methyl-4-[(1-methylcyclopropyl)amino]furo[2,3-d]pyrimidine-5-carboxamide]",10 to 100 nM,–
"Cc1oc2ncnc(NC3(C)CC3)c2c1C(=O)NCc1cnn(C)c1 [Example 646, 6-Methyl-N-[(1-methyl-1H-pyrazol-4-yl)methyl]-4-[(1-methylcyclopropyl)amino]furo[2,3-d]pyrimidine-5-carboxamide]",10 to 100 nM,–
"Cc1oc2ncnc(NC3(C)CC3)c2c1C(=O)NCc1cncnc1 [Example 647, 6-Methyl-4-[(1-methylcyclopropyl)amino]-N-(pyrimidin-5-ylmethyl)furo[2,3-d]pyrimidine-5-carboxamide]",100 to 1000 nM,–
"Cc1oc2ncnc(NC3(C)CC3)c2c1C(=O)NCc1ncc2c(n1)CCC2 [Example 648, N-{5H,6H,7H-Cyclopenta[d]pyrimidin-2-ylmethyl}-6-methyl-4-[(1-methylcyclopropyl)amino]furo[2,3-d]pyrimidine-5-carboxamide]",–,>8

SMILES,IC50,PDE1b (pIC50)
"Cc1cc(C(F)(F)F)nc(CNC(=O)c2c(C)oc3ncnc(NC4(C)CC4)c23)n1 [Example 649, 6-Methyl-N-{[4-methyl-6-(trifluoromethyl)pyrimidin-2-yl]methyl}-4-[(1-methylcyclopropyl)amino]furo[2,3-d]pyrimidine-5-carboxamide]",–,>8
"Cc1oc2ncnc(NC3(C)CC3)c2c1C(=O)NC1CCN(c2ccccn2)CC1 [Example 650, 6-Methyl-4-[(1-methylcyclopropyl)amino]-N-[1-(pyridin-2-yl)piperidin-4-yl]furo[2,3-d]pyrimidine-5-carboxamide]",10 to 100 nM,–
"Cc1nc2cc(NC(=O)c3c(C)oc4ncnc(NC5(C)CC5)c34)ccc2o1 [Example 651, 6-Methyl-N-(2-methyl-1,3-benzoxazol-5-yl)-4-[(1-methylcyclopropyl)amino]furo[2,3-d]pyrimidine-5-carboxamide]",10 to 100 nM,–
"Cc1oc2ncnc(NC3(C)CC3)c2c1C(=O)NCc1ccncn1 [Example 652, 6-Methyl-4-[(1-methylcyclopropyl)amino]-N-(pyrimidin-4-ylmethyl)furo[2,3-d]pyrimidine-5-carboxamide]",10 to 100 nM,–
"Cc1oc2ncnc(NC3(C)CC3)c2c1C(=O)NCc1ncccn1 [Example 653, 6-Methyl-4-[(1-methylcyclopropyl)amino]-N-(pyrimidin-2-ylmethyl)furo[2,3-d]pyrimidine-5-carboxamide]",10 to 100 nM,–
"Cc1cc(CNC(=O)c2c(C)oc3ncnc(NC4(C)CC4)c23)ncn1 [Example 654, 6-Methyl-4-[(1-methylcyclopropyl)amino]-N-[(6-methylpyrimidin-4-yl)methyl]furo[2,3-d]pyrimidine-5-carboxamide]",10 to 100 nM,–
"Cc1oc2ncnc(NC3(C)CC3)c2c1C(=O)Nc1ccc(N2CCOCC2)cc1 [Example 655, 6-Methyl-4-[(1-methylcyclopropyl)amino]-N-[4-(morpholin-4-yl)phenyl]furo[2,3-d]pyrimidine-5-carboxamide]",10 to 100 nM,–
"Cc1oc2ncnc(NC3(C)CC3)c2c1C(=O)Nc1ccc(N2CCOCC2)nn1 [Example 656, 6-Methyl-4-[(1-methylcyclopropyl)amino]-N-[6-(morpholin-4-yl)pyridazin-3-yl]furo[2,3-d]pyrimidine-5-carboxamide]",100 to 1000 nM,–
"Cc1oc2ncnc(NC3(C)CC3)c2c1C(=O)Nc1cnc(N2CCOCC2)nc1 [Example 657, 6-Methyl-4-[(1-methylcyclopropyl)amino]-N-[2-(morpholin-4-yl)pyrimidin-5-yl]furo[2,3-d]pyrimidine-5-carboxamide]",10 to 100 nM,–
"Cc1oc2ncnc(NC3(C)CC3)c2c1C(=O)Nc1cnc(N2CCOCC2)cn1 [Example 658, 6-Methyl-4-[(1-methylcyclopropyl)amino]-N-[5-(morpholin-4-yl)pyrazin-2-yl]furo[2,3-d]pyrimidine-5-carboxamide]",10 to 100 nM,–
"Cc1ncncc1CNC(=O)c1c(C)oc2ncnc(NC3(C)CC3)c12 [Example 659, 6-Methyl-4-[(1-methylcyclopropyl)amino]-N-[(4-methylpyrimidin-5-yl)methyl]furo[2,3-d]pyrimidine-5-carboxamide]",10 to 100 nM,–
"Cc1oc2ncnc(NC3(C)CC3)c2c1C(=O)NC1CCN(c2cnccn2)CC1 [Example 660, 6-Methyl-4-[(1-methylcyclopropyl)amino]-N-[1-(pyrazin-2-yl)piperidin-4-yl]furo[2,3-d]pyrimidine-5-carboxamide]",10 to 100 nM,–
"Cc1oc2ncnc(NC3(C)CC3)c2c1C(=O)NCc1cc(=O)[nH]cn1 [Example 661, 6-Methyl-4-[(1-methylcyclopropyl)amino]-N-[(6-oxo-1,6-dihydropyrimidin-4-yl)methyl]furo[2,3-d]pyrimidine-5-carboxamide]",10 to 100 nM,–
"Cc1nc(CNC(=O)c2c(C)oc3ncnc(NC4(C)CC4)c23)cc(=O)[nH]1 [Example 662, 6-Methyl-N-[(2-methyl-6-oxo-1,6-dihydropyrimidin-4-yl)methyl]-4-[(1-methylcyclopropyl)amino]furo[2,3-d]pyrimidine-5-carboxamide]",10 to 100 nM,–
"COc1ncnc2c1CN(C(=O)c1c(C)oc3ncnc(NC4(C)CC4)c13)CC2 [Example 663, 5-{4-Methoxy-5H,6H,7H,8H-pyrido[4,3-d]pyrimidine-6-carbonyl}-6-methyl-N-(1-methylcyclopropyl)furo[2,3-d]pyrimidin-4-amine]",100 to 1000 nM,–
"Cc1oc2ncnc(NC3(C)CC3)c2c1C(=O)NCc1ncc(C(C)C)o1 [Example 664, 6-Methyl-4-[(1-methylcyclopropyl)amino]-N-{[5-(propan-2-yl)-1,3-oxazol-2-yl]methyl}furo[2,3-d]pyrimidine-5-carboxamide]",10 to 100 nM,–
